Measurements: patent US8815872B2, “Macrocyclics pyrimidines as aurora kinase inhibitors” (Merck Patent GmbH, priority 2008, dated 2014)

Key:
A549 = test: Cellular activity A549; assay type: cell-based; conditions: Homo sapiens
Procedure: (§1) The susceptibility of a particular cell to treatment with the compounds according to the invention was determined by in vitro tests. Typically, a culture of the cell was combined with a compound according to the invention at various concentrations for a period of time that was sufficient to allow the active agents to induce cell death or to inhibit migration, usually between about one hour and one week. In vitro testing was carried out using cultivated cells from a biopsy sample. The viable cells remaining after the treatment then were counted.

MiaPaca2 = test: Cellular activity MiaPaca2; assay type: cell-based; conditions: for IC50: Homo sapiens, MIA PaCa-2
Procedure: as §1

Aurora A = target: T1, Aurora A (Homo sapiens, UniProt O14965); test: Aurora A enzyme assay (Caliper LC3000 mobility shift); assay type: biochemical
T1 construct: N-terminal GST fusion with full length Aurora A (1-403 amino acids); purchased Carna Biosciences 05-101
T1 sequence (O14965 1-403): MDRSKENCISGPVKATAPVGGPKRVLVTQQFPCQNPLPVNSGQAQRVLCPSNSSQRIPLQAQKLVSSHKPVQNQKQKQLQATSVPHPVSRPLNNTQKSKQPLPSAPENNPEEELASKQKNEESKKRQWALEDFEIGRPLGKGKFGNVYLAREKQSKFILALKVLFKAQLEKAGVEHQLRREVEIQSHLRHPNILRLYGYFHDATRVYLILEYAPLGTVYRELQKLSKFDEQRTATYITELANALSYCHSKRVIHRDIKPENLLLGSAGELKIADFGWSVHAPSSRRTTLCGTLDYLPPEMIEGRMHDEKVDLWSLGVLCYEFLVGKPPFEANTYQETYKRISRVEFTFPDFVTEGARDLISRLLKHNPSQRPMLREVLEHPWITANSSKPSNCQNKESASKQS
Procedure: (§2) The Aurora and other kinase assays described here were performed on two Caliper Life Sciences systems, the LC3000 and the Desktop Profiler. These provide data on enzyme activity via measurement of the relative amounts of phosphorylated or unphosphorylated fluorescently labelled substrate peptide at the end of an enzymatic reaction. These different states of peptide are resolved by applying a potential difference across the sample. The presence of a charged phosphate group on the product (as opposed to the substrate) causes a different peptide mobility between the two peptides. This is visualized by excitation of a fluorescent label on the substrate and product peptides and represented as peaks within the analysis software.
For example, in order to measure inhibitor activity of Aurora A inhibitors in the Caliper Life Sciences LC3000, a TTP Mosquito liquid handling instrument was used to place […] of an appropriate concentration of inhibitor in 100% DMSO (for a dose response curve calculation) into each well of a 384-well plate. To this reaction components were added to a final volume of 25 μl: • 0.067 ng/μl GST-Aurora A (Carna Biosciences 05-101. N-terminal GST fusion with full length Aurora A (1-403 amino acids), accession number NP_940835.1). • 15 μM ATP (Fluka, 02055) • 1 mM DTT (Sigma, D0632) • 1 mM MgC12 (Sigma, M1028) • 1 μM substrate peptide (sequence FITC-LRRASLG-(CONH2), synthesized by Tufts Peptide Synthesis service. • 100 mM HEPES pH 7.5 (Calbiochem, 391338) • 0.015% Brij-35 (Sigma, B4184)
The reaction was incubated for 90 min at 25° C., and then stopped by the addition of 70 μl of Stop buffer (100 mM HEPES pH 7.5, 0.015% Brij-35, 10 mM EDTA (Sigma, E7889)).
The plate was read on a Caliper LC 3000 in an Off-Chip mobility shift assay format, using the following parameters for a 12-sipper chip: screening pressure −1.8 psi, upstream voltage −2700, downstream voltage −1000. These conditions cause unphosphorylated substrate and phosphorylated product peptide to resolve as separate peaks allowing direct measurement of percentage of conversion of substrate to product. The percent conversion was plotted against concentration of inhibitor to produce a sigmoidal dose response curve, from which an IC50 was calculated using XLFit for Microsoft Excel.

Aurora B = Aurora B (Homo sapiens, UniProt Q96GD4); test: Aurora B enzyme assay (Caliper); assay type: biochemical
Procedure: as §2

[1] = target: kinases (not incl. Aurora); test: Kinase inhibition profile (not incl. Aurora); assay type: biochemical; conditions: hit means >79% inhibition
Procedure: as §2
The Desktop Profiler utilizes the same principal as the LC 3000 for calculating percentage conversion of a substrate to product. Caliper Life Sciences provided proprietary flash frozen pre-made 384 well plates containing selected kinases. Each column in the 384 well plate contained a particular selected kinase. A second plate, the ‘substrate plate’ contained a mix of fluorescently labeled peptide substrate and ATP. These were arranged in columns so that transfer for substrate plate to enzyme plate provided the correct enzyme with the correct substrate/ATP concentration.
Compounds were added to a thawed enzyme plate in the desired format, in single concentrations. Reactions were initiated by transfer of the ubstrate/ATP mix from the substrate plate. The enzyme plate was incubated for 90 mins at 25 °C. The reaction was stopped by addition of […] of Stop Buffer (100 mM HEPES pH 7.5, 0.015% Brij-35, 10 mM EDTA (Sigma, E7889)).
Plates were read in a manner identical to that of the LC3000, and the ratio between substrate and product peaks provided the activity of the enzyme in that well. This was best represented by a plate heat map which colors each well by percent inhibition as compared to positive and negative controls (no inhibitors and no ATP respectively).

Chain of Aurora B (Q96GD4 whole entry): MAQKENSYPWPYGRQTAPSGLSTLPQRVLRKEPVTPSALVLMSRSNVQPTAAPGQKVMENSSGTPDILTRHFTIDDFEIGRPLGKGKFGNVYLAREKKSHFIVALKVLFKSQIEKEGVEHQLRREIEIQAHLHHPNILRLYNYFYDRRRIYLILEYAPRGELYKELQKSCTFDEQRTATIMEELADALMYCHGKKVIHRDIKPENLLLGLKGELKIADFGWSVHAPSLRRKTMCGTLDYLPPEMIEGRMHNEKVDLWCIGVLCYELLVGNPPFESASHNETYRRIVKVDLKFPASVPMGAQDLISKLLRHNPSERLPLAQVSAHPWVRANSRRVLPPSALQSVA

| SMILES | IC50 (A549) [nM] | IC50 (MiaPaca2) [nM] | IC50 (Aurora A) [nM] | IC50 (Aurora B) [nM] | Kinase Inhibition Profile (not incl. Aurora) # kinases hit/# kinases tested ([1]; at 1 μM) | Kinase Inhibition Profile (not incl. Aurora) # kinases hit/# kinases tested ([1]; at 10 μM) | Cellular Activity MiaPaca2 IC50 (nM) (MiaPaca2; MiaPaca2) |
| --- | --- | --- | --- | --- | --- | --- | --- |
| CN1CCN(c2ccc3cc2OCCS[C@@H]2C[C@@H]4C[C@H]2[C@@H](Nc2nc(ncc2F)N3)[C@H]4C(N)=O)CC1 [drawing 220] | 101 to 1000 | 101 to 1000 | 1 to 100 | 1 to 100 | 12/51 at 1 μM | – | – |
| NC(=O)[C@H]1[C@H]2C[C@H]3[C@H]1Nc1nc(ncc1F)Nc1cccc(c1)[C@H](O)CS[C@@H]3C2 | 101 to 1000 | 101 to 1000 | 1 to 100 | 1 to 100 | 0/76 at 1 μM | – | – |
| CN1CCN(c2ccc3cc2C(=O)NC[C@@H]2C[C@@H]4C[C@H]2[C@@H](Nc2nc(ncc2F)N3)[C@H]4C(N)=O)CC1 | > 6250 | 1000 to 6250 | 101 to 1000 | 101 to 1000 | 0/73 at 1 μM | – | – |
| C=CC1CC2/C=C\COc3cccc(c3)Nc3ncc(F)c(n3)N[C@H]2[C@H]1C(N)=O (some centres unmarked) | – | – | 1 to 100 | 1 to 100 | 0/36 at 1 uM | – | – |
| N#Cc1ccc2cc1NC(=O)CS[C@@H]1C[C@@H]3C[C@H]1[C@@H](Nc1nc(ncc1F)N2)[C@H]3C(N)=O [drawing 223] | > 6250 | > 6250 | 1 to 100 | 101 to 1000 | 12/38 at 1 μM | – | – |
| CN1CCN(c2ccc3cc2[C@H](O)CS[C@@H]2C[C@@H]4C[C@H]2[C@@H](Nc2nc(ncc2F)N3)[C@H]4C(N)=O)CC1 | 1 to 100 | 1 to 100 | 1 to 100 | 1 to 100 | 121/267 at 1 μM | – | – |
| O=C(O)[C@H]1[C@H]2C[C@H]3[C@H]1Nc1nc(ncc1F)Nc1cccc(c1)OCCS[C@@H]3C2 [drawing 218] | > 6250 | > 6250 | 1 to 100 | 1 to 100 | – | 8/36 at 10 μM | – |
| CCC1CC2CCCOc3cccc(c3)Nc3ncc(F)c(n3)N[C@H]2[C@H]1C(N)=O (some centres unmarked) | – | – | 101 to 1000 | 101 to 1000 | 0/36 at 1 uM | – | – |
| NC(=O)[C@H]1[C@H]2C[C@H]3[C@H]1Nc1nc(ncc1F)Nc1cccc(c1)[C@H](OCCCN1CCOCC1)CS[C@@H]3C2 | 1000 to 6250 | – | 101 to 1000 | 101 to 1000 | – | – | +++= |
| NC(=O)[C@H]1[C@H]2C[C@H]3[C@H]1Nc1nc(ncc1F)Nc1cccc(c1)CSS[C@@H]3C2 [drawing 213] | 1000 to 6250 | 1000 to 6250 | 1 to 100 | 1 to 100 | – | – | – |
| NC(=O)[C@H]1[C@H]2C[C@H]3[C@H]1Nc1nc(ncc1F)Nc1cccc(c1)CCC(=O)O[C@@H]3C2 | 1000 to 6250 | 1000 to 6250 | 101 to 1000 | 101 to 1000 | – | – | – |
| NC(=O)[C@H]1[C@H]2C[C@H]3[C@H]1Nc1nc(ncc1F)Nc1ccc(F)c(c1)CC(=O)N[C@@H]3C2 | 1000 to 6250 | 1000 to 6250 | 1 to 100 | 1 to 100 | – | – | – |
| NC(=O)[C@H]1[C@H]2C[C@H]3[C@H]1Nc1nc(ncc1F)Nc1ccc4c(c1)CN(CC4)C(=O)CS[C@@H]3C2 | 1000 to 6250 | 1000 to 6250 | 1 to 100 | 1 to 100 | – | – | – |
| NC(=O)[C@H]1[C@@H]2CC3NNC(=O)Cc4cccc(c4)Nc4ncc(F)c(n4)N[C@@H]1[C@@H]3C2 (some centres unmarked) | > 6250 | > 6250 | 1 to 100 | 1 to 100 | – | – | – |
| NC(=O)[C@H]1[C@H]2C[C@H]3[C@H]1Nc1nc(ncc1F)Nc1cccc(c1)CCN[C@@H]3C2 | 1000 to 6250 | 1000 to 6250 | 101 to 1000 | 1 to 100 | – | – | – |
| NC(=O)[C@H]1[C@H]2C[C@H]3[C@H]1Nc1nc(ncc1F)Nc1cccc(c1)OCCCS[C@@H]3C2 | 1000 to 6250 | 1000 to 6250 | 1 to 100 | 1 to 100 | – | – | – |
| NC(=O)[C@H]1[C@@H]2C[C@H]3CNS(=O)(=O)c4cccc(c4)Nc4ncc(F)c(n4)N[C@@H]1[C@@H]3C2 | 1000 to 6250 | 1000 to 6250 | 1 to 100 | 1 to 100 | – | – | – |
| C=CC1CC2/C=C/COc3cccc(c3)Nc3ncc(F)c(n3)N[C@H]2[C@H]1C(N)=O (some centres unmarked) | – | – | 101 to 1000 | 101 to 1000 | 0/36 | 12/255 | – |
| CN1CCN(c2cc3cc(c2)C(=O)NC[C@@H]2C[C@@H]4C[C@H]2[C@@H](Nc2nc(ncc2F)N3)[C@H]4C(N)=O)CC1 | 1000 to 6250 | 101 to 1000 | 1 to 100 | – | 14/264 at 1 μM | – | – |
| NC(=O)[C@H]1[C@H]2C[C@H]3[C@H]1Nc1nc(ncc1F)Nc1cccc(c1)[C@@H](O)CS[C@@H]3C2 | 101 to 1000 | 101 to 1000 | 1 to 100 | 1 to 100 | – | – | – |
| NC(=O)[C@H]1[C@H]2C[C@H]3[C@H]1Nc1nc(ncc1F)Nc1cccc(c1)CCS[C@@H]3C2 [drawing 234] | 1000 to 6250 | 1000 to 6250 | 1 to 100 | 1 to 100 | – | – | – |
| CCC1CC2/C=C\COc3cccc(c3)Nc3ncc(F)c(n3)N[C@H]2[C@H]1C(N)=O (some centres unmarked) | – | – | 1 to 100 | 1 to 100 | 1/36 at 1 uM | – | – |
| NC(=O)[C@H]1[C@H]2C[C@H]3[C@H]1Nc1nc(ncc1F)Nc1ccc4c(c1)N(CC4)C(=O)CS[C@@H]3C2 | > 6250 | > 6250 | 1 to 100 | 101 to 1000 | – | – | – |
